# Columns and labels:
# Dihydrofolate reductase [1] = target: T1, Dihydrofolate reductase (Pneumocystis carinii, UniProt P16184)
# T1 sequence (P16184 whole entry): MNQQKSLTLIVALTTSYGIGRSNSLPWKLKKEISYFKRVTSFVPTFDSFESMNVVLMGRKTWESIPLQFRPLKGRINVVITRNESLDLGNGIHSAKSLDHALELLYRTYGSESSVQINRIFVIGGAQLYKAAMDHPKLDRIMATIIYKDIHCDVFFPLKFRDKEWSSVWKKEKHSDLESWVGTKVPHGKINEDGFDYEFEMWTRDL
# Description: Inhibition against Dihydrofolate reductase in Pneumocystis carinii
# [2] = target: T2, Bifunctional dihydrofolate reductase-thymidylate synthase (Toxoplasma gondii, UniProt Q07422)
# T2 sequence (Q07422 whole entry): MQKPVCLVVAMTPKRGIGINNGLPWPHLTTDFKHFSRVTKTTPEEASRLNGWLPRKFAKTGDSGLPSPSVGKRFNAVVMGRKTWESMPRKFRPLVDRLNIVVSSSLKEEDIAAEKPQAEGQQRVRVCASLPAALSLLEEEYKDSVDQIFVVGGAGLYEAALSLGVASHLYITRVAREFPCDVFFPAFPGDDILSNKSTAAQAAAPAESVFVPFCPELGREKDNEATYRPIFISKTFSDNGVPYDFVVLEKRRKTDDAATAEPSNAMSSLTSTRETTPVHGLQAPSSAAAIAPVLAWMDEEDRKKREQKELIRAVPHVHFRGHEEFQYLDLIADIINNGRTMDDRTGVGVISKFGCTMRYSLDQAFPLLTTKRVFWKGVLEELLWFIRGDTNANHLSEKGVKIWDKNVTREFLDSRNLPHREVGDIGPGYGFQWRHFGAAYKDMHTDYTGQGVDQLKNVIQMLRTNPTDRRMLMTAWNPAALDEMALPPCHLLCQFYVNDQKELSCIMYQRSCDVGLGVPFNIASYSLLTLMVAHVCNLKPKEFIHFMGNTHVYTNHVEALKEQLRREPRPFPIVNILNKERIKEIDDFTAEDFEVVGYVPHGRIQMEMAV
# Description: Inhibition against Dihydrofolate reductase in Toxoplasma gondii
# Dihydrofolate reductase [3] = target: T3, Dihydrofolate reductase (Rattus norvegicus, UniProt Q920D2)
# T3 sequence (Q920D2 whole entry): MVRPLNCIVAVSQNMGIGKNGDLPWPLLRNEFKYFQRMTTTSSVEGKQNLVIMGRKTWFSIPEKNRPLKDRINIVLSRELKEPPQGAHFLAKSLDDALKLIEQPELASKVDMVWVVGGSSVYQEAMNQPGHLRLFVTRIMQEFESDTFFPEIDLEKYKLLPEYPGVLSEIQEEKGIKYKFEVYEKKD
# Description: Inhibition against Dihydrofolate reductase in rat liver
SMILES,IC50 (Dihydrofolate reductase [1]),IC50 [2],IC50 (Dihydrofolate reductase [3])
CN(Cc1c[nH]c2nc(N)nc(N)c12)c1ccc(C(=O)N(C)C(CCC(=O)O)C(=O)O)cc1 (centres undefined),0.044 µM,0.15 µM,0.06 µM
Nc1nc(N)c2c(CSc3ccc(Cl)c(Cl)c3)c[nH]c2n1,58.5 µM,11.6 µM,5.3 µM
COc1ccc(SCc2c[nH]c3nc(N)nc(N)c23)cc1OC,11.1 µM,2.6 µM,16.7 µM
COc1ccc(OC)c(N(C)Cc2c[nH]c3nc(N)nc(N)c23)c1,> 12 µM,3.4 µM,> 12 µM
Nc1nc(N)c2c(CSc3cccc4ccccc34)c[nH]c2n1,10.6 µM,0.81 µM,3 µM
Nc1nc(N)c2c(CSc3ccc4ccccc4c3)c[nH]c2n1,929 µM,9.2 µM,82.9 µM
CN(Cc1c[nH]c2nc(N)nc(N)c12)c1ccc(Cl)c(Cl)c1,28.3 µM,1 µM,3 µM
CN(Cc1c[nH]c2nc(N)nc(N)c12)c1cccc2ccccc12,209 µM,0.87 µM,8.2 µM

# — ChEMBL document CHEMBL1129990, “Effect of N9-methylation and bridge atom variation on the activity of 5-substituted 2,4-diaminopyrrolo[2,3-d]pyrimidines against dihydrofolate reductases from Pneumocystis carinii and Toxoplasma gondii” (J Med Chem, 1997)
